Data published in patent US10077261B2, “Imidazolin-5-one derivative useful as FASN inhibitors for the treatment of cancer” (Janssen Pharmaceutica NV, priority 2012, dated 2018).
pIC50: −log10 of the molar value.

Key:
[1] = biological target: T1, hFASN enzyme (full length) (Homo sapiens, UniProt P49327); assay: Fatty Acid Synthase (FASN) inhibition scintillation proximity assay; assay type: biochemical; conditions: for inhibition at 10 µM: read-out: Human FASN % inhibition @ 10 μM, 10 μM test compound; for IC50: read-out: Human FASN pIC50 (converted)
T1 construct: 10 μL hFASN enzyme (full length, 300 ng, purified in house); made in house
Method in brief: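 Compounds at 0.01–30 μM were mixed with 300 ng purified full-length enzyme in 100 mM KH2PO4 pH 7.5, 1 mM DTT. Substrates ³H-acetyl-CoA and malonyl-CoA were then converted, and bead addition stopped the reaction. Signal was normalised to low and high plate controls and fitted by 4-parameter nonlinear regression.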

A2780 ovarian cells [2] = assay: A2780 ovarian cell proliferation assay in lipid reduced medium, with palmitate (MTT); assay type: cell-based; conditions: Homo sapiens, A2780, 96 h; read-out: pIC50 A2780 Ovarian Cell, With Palmitate (converted)
Method in brief: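 Seeded cells were switched next day to lipid-reduced serum, exposed to compound and 25 μM palmitate complexed with fatty-acid-free BSA, and incubated 96 h. Proliferation was then determined by MTT absorbance at 544 nm, with a best-fit curve of signal against concentration.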

A2780 ovarian cells [3] = assay: A2780 ovarian cell proliferation assay in lipid reduced medium, without palmitate (MTT); assay type: cell-based; conditions: Homo sapiens, A2780, 96 h; read-out: pIC50 A2780 Ovarian Cell, Without Palmitate (converted)
[4] = test system: LNCaP-Vancouver prostate cells; assay: In vitro LNCaP Vancouver prostate cell proliferation assay in lipid reduced medium; assay type: cell-based; conditions: read-out: pIC50 LNCaP_Vancouver prostate cell (converted)
Description: LNCaP-Vancouver prostate cells were obtained from the Vancouver Prostate Cancer Centre. Cells were maintained in RPMI-1640, 10% Fetal Calf Serum (FCS, Hyclone), 2 mM glutamine and 50 μg/ml Gentamicin.
For the proliferation experiment 1500 LNCaP-Vancouver cells per well were seeded in a 384-well black with clear bottom plate (costar 3712BC) in 40 μl RPMI-1640, 10% Lipid reduced serum (LRS, Hyclone), 50 μg/ml Gentamicin and 2 mM Glutamine and incubated at 37° C., 5% CO2. The next day 10 μl of test compound/DMSO diluted in medium was added (3E-5M, 1E-5M, 3E-6M, 1E-6M, 3E-7M, 1E-7M, 3E-8M, 1E-8M final concentration). Compounds were tested in duplicate. After 96 h incubation at 37° C., 5% CO2 25 μl ATP-glow mix was added. The plate was incubated for 30 min at 37° C. and luminescence was measured with the Envision.
(§1) Analysis: Determination of pIC50 Values
(§2) pIC50 values were calculated as follows.
(§3) where mLC and mHC are the means of the low control wells and high control wells on the plate, after manual exclusion of outliers. The relation between the % Controlmin values and concentration was fitted to a 4-parameter logistic curve using a non-linear least squares regression method to determine the pIC50 value. Outlying data points were excluded manually to get a correct fit. The pIC50 corresponds to −log 10(IC50), if the IC50 is expressed in molar units (http://www.ncbi.nlm.nih.gov/books/NBK91994). The IC50 parameter was always determined by non-linear regression, but one or more of the other parameters may have been held fixed on a relevant input value, such as 0 for the bottom values.
For dose response curves with FASN inhibitors in LNCaP-Vancouver or PC-3M-Luc-C6 cells the curves bottom out around 30 to 40% of the control value. A standard fit PL2, forcing the lower bound to this level was used.
Representative compounds of the present invention were tested according to the procedure as described in Biological Example 4a and 4b above, with results as listed in Table 9, below.

[5] = biological target: Fatty Acid Synthase Keto-reductase Domain (FASN KR) (Homo sapiens, UniProt P49327); assay: Fatty Acid Synthase keto-reductase domain (FASN KR) inhibition, NADPH oxidation at 340 nm
Description: After 20 minutes incubation at room temperature the plate was measured again (T2).
The decrease in absorbance was calculated as (Absorbance before incubation T1)−(Absorbance following incubation T2).
A plot of Controlmin versus test compound concentration was fitted to a 4-parameter logistic curve using a non-linear least squares regression method.

[6] = test system: PC-3M-Luc-C6 prostate cells; assay: In vitro PC-3M-Luc-C6 prostate cell proliferation assay in lipid reduced medium; assay type: cell-based; conditions: 96 h, read-out: pIC50 PC-3M-Luc-C6 prostate cell (converted)
Description: PC-3M-Luc-C6 prostate cells were obtained from Xenogen Corporation. Cells were maintained in MEM supplemented with 10% Fetal Calf Serum (FCS, Hyclone), 2 mM glutamine, 1 mM sodium pyruvate, 1% BME vitamins (available from for example, Sigma Aldrich), 0.1 mM non Essential Amino Acid and 50 μg/ml Gentamicin. The cells were passaged twice a week.
The next day 10 μl test compound/DMSO diluted in medium was added (3E-5M, 1E-5M, 3E-6M, 1E-6M, 3E-7M, 1E-7M, 3E-8M, 1E-8M final concentration). Compounds were tested in duplicate. After 96 h incubation at 37° C., 5% CO2 25 μl ATP-glow mix was added. The plate was incubated for 30 min at 37° C. and luminescence was measured with the Envision.
as §1, §2, §3

T1 sequence (P49327 whole entry): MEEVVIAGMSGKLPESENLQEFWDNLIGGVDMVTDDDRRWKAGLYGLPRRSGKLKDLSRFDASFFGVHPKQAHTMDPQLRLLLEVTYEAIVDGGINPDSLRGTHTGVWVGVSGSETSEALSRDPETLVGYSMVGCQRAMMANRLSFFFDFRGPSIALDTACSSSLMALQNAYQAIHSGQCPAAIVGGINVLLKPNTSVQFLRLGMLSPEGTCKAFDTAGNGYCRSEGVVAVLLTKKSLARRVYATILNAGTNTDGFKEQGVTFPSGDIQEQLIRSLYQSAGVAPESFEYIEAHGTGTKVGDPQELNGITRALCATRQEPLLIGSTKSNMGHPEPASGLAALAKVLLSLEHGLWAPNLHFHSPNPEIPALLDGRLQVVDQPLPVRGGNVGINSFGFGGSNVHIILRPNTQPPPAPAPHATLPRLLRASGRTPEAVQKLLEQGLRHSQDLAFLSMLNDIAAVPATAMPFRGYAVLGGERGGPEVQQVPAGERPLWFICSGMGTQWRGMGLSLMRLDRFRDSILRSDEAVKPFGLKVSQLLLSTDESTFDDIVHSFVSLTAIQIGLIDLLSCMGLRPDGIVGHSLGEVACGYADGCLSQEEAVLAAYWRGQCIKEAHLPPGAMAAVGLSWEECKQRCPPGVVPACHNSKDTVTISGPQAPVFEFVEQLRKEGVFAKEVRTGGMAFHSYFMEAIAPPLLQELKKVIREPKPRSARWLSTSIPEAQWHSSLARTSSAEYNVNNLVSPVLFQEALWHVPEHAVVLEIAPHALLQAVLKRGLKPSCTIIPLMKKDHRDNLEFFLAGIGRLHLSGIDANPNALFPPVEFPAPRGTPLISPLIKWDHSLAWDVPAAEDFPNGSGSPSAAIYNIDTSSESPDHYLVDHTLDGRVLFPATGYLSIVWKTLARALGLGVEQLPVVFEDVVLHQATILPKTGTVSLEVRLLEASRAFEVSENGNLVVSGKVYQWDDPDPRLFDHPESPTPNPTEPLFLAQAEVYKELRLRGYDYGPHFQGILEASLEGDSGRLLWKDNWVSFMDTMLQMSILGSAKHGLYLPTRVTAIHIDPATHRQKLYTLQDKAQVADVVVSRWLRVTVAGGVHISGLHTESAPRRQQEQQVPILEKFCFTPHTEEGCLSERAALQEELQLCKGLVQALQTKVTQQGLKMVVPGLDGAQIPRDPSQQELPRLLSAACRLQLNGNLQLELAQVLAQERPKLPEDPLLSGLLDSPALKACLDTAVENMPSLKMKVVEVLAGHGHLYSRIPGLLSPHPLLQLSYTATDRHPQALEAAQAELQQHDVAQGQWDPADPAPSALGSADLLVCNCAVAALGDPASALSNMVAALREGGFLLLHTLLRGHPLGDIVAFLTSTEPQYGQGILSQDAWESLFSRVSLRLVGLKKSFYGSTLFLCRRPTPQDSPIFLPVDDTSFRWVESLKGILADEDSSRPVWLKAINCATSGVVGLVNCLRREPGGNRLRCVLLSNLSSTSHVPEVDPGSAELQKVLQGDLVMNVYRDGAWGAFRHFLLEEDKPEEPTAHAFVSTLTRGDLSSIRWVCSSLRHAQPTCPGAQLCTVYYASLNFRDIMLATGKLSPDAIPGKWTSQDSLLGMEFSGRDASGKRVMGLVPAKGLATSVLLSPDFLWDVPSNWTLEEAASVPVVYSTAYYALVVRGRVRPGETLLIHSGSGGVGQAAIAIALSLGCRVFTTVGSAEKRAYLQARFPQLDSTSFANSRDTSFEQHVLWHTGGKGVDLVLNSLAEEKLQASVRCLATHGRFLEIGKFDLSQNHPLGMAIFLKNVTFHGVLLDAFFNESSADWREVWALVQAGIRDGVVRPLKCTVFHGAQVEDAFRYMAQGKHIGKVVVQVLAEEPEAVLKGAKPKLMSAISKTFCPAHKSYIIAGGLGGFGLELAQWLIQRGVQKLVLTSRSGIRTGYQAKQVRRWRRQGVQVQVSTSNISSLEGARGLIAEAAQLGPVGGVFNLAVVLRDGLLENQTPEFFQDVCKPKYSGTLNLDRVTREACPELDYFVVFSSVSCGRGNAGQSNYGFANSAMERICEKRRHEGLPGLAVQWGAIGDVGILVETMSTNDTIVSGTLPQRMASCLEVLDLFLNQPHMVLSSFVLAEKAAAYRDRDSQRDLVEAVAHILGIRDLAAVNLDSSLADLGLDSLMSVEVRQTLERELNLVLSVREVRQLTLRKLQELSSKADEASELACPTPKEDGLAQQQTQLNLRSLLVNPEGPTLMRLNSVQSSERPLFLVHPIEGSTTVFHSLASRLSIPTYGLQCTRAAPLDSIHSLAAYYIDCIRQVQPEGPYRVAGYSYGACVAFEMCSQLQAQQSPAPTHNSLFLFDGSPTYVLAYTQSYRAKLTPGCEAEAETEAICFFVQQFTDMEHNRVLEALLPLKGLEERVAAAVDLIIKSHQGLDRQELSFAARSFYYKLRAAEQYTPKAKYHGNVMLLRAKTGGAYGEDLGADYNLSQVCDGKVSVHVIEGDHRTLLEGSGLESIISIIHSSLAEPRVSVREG
Chain of Fatty Acid Synthase Keto-reductase Domain (FASN KR) (P49327 whole entry, the tested form may be a part): as the sequence (P49327 whole entry) above

Structure (SMILES) | inhibition at 10 µM [1] | IC50 [1] | IC50 (A2780 ovarian cells [2]) | IC50 (A2780 ovarian cells [3]) | IC50 [4] | pIC50 [5] | IC50 [6]
Cc1cc(-c2ccc3c(cnn3C)c2)ccc1C1=NC2(CC2)C(=O)N1CC1CN(C(=O)C(C)C)C1 [compound 473, 5-[2-Methyl-4-(1-methyl-1H-indazol-5-yl)phenyl]-6-{[1-(2-methylpropanoyl)azetidin-3-yl]methyl}-4,6-diazaspiro[2.4]hept-4-en-7-one] | 95% | 269 nM | > 10000 nM | ~275 nM | 2190 nM | 6.28 | 
O=C(C1CC1)N1CC[C@@H](CN2C(=O)C3(CCCC3)N=C2c2ccc(-c3cnc4[nH]ccc4c3)cc2F)C1 [compound 881, (R)-3-((1-(cyclopropanecarbonyl)pyrrolidin-3-yl)methyl)-2-(2-fluoro-4-(1H-pyrrolo[2,3-b]pyridin-5-yl)phenyl)-1,3-diazaspiro[4.4]non-1-en-4-one] | 101% | 107 nM | > 10000 nM | 240 nM | 1320 nM | 6.50 | 
COc1nn(C)c2ccc(-c3ccc(C4=NC5(CC5)C(=O)N4C[C@@H]4CCN(C(=O)C5CC5)C4)cc3)cc12 [compound 557, 6-{[(3R)-1-(Cyclopropylcarbonyl)pyrrolidin-3-yl]methyl}-5-[4-(3-methoxy-1-methyl-1H-indazol-5-yl)phenyl]-4,6-diazaspiro[2.4]hept-4-en-7-one] | 97% | 372 nM | 4790 nM | 200 nM | 1380 nM | 6.37 | 
O=C(C1CC1)N1CC[C@@H](CN2C(=O)C3(CC3)N=C2c2ccc(-c3ccc4ncccc4c3)cc2F)C1 [compound 248, (R)-6-((1-(cyclopropanecarbonyl)pyrrolidin-3-yl)methyl)-5-(2-fluoro-4-(quinolin-6-yl)phenyl)-4,6-diazaspiro[2.4]hept-4-en-7-one] | 99% | 69.2 nM | > 10000 nM | 513 nM | 479 nM | 6.83 | 
Cc1cc(-c2ccc3c(cnn3C)c2)ccc1C1=NC2(CC2)C(=O)N1CC1CN(C(=O)C2(O)CC2)C1 [compound 498, 6-({1-[(1-Hydroxycyclopropyl)carbonyl]-azetidin-3-yl}methyl)-5-[2-methyl-4-(1-methyl-1H-indazol-5-yl)phenyl]-4,6-diazaspiro[2.4]hept-4-en-7-one] | 99% |  |  |  |  |  | 234 nM
O=C(C1CC1)N1CC[C@@H](CN2C(=O)C3(CC3)N=C2c2ccc(-c3ccc4cnc(Cl)cc4c3)cc2)C1 [compound 466, 5-[4-(3-Chloroisoquinolin-6-yl)phenyl]-6-{[(3R)-1-(cyclopropylcarbonyl)pyrrolidin-3-yl]methyl}-4,6-diazaspiro[2.4]hept-4-en-7-one] | 87% | 479 nM | > 10000 nM | ~2690 nM | 3800 nM | 5.87 | 
Cn1cc2cc(-c3ccc(C4=NC5(CC5)C(=O)N4CC4CN(C(=O)C5CC5)C4)c(F)c3)ccc2n1 [compound 644, 6-{[1-(Cyclopropylcarbonyl)azetidin-3-yl]methyl}-5-[2-fluoro-4-(2-methyl-2H-indazol-5-yl)phenyl]-4,6-diazaspiro[2.4]hept-4-en-7-one] | 97% | 178 nM | > 10000 nM | 162 nM | 2820 nM | 5.84 | 
Cc1cc(-c2ccc3c(cnn3C)c2)ccc1C1=NC2(CC2)C(=O)N1CC1CN(C(=O)C2(CO)CC2)C1 [compound 480, 6-[(1-{[1-(Hydroxymethyl)cyclopropyl]carbonyl}azetidin-3-yl)methyl]-5-[2-methyl-4-(1-methyl-1H-indazol-5-yl)phenyl]-4,6-diazaspiro[2.4]hept-4-en-7-one] | 97% | 155 nM | > 10000 nM | ~257 nM | 1150 nM | 6.28 | 
O=C(C1CC1)N1CC[C@@H](CN2C(=O)C3(CCN(C(=O)C(F)(F)F)CC3)N=C2c2ccc(-c3ccc4[nH]ccc4c3)cc2)C1 [compound 751, 3-{[(3R)-1-(Cyclopropylcarbonyl)pyrrolidin-3-yl]methyl}-2-[4-(1H-indol-5-yl)phenyl]-8-(trifluoroacetyl)-1,3,8-triazaspiro[4.5]dec-1-en-4-one] | 98% | 135 nM | > 10000 nM | 89.1 nM | 724 nM | 6.78 | 
Cn1ccc(-c2ccc(-c3ccc(C4=NC5(CC5)C(=O)N4CC4CN(C(=O)C5CC5)C4)c(F)c3)cc2)n1 [compound 547, 6-{[1-(Cyclopropylcarbonyl)azetidin-3-yl]methyl}-5-[3-fluoro-4′-(1-methyl-1H-pyrazol-3-yl)biphenyl-4-yl]-4,6-diazaspiro[2.4]hept-4-en-7-one] | 98% | 178 nM | 5890 nM | ~174 nM | 1000 nM | 6.17 | 
O=C(C1CC1)N1CC[C@@H](CN2C(=O)C3(CCOCC3)N=C2c2ccc(-c3ccc4occc4c3)cc2)C1 [compound 667, 2-[4-(1-Benzofuran-5-yl)phenyl]-3-{[(3R)-1-(cyclopropylcarbonyl)pyrrolidin-3-yl]methyl}-8-oxa-1,3-diazaspiro[4.5]dec-1-en-4-one] | 97% | 155 nM | > 10000 nM | ~1000 nM | 1780 nM | 6.47 | 
O=C(C1CC1)N1CC[C@@H](CN2C(=O)C3(CC3)N=C2c2ccc(-c3ccc4cnc(F)cc4c3)cc2)C1 [compound 220, (R)-6-((1-(cyclopropanecarbonyl)pyrrolidin-3-yl)methyl)-5-(4-(3-fluoroisoquinolin-6-yl)phenyl)-4,6-diazaspiro[2.4]hept-4-en-7-one] | 99% | 91.2 nM | > 10000 nM | 339 nM | 1070 nM | 6.58 | 
Cc1cc(C2=NC3(CC3)C(=O)N2CC2CN(C(=O)C3CC3)C2)ccc1-c1ccc2[nH]ccc2c1 [compound 435, 6-{[1-(Cyclopropylcarbonyl)azetidin-3-yl]methyl}-5-[4-(1H-indol-5-yl)-3-methylphenyl]-4,6-diazaspiro[2.4]hept-4-en-7-one] | 91% | 263 nM | > 10000 nM | ~933 nM | 3470 nM | 5.91 | 
Cc1cc(-c2ccc3cn(C)nc3c2)ccc1C1=NC2(CC2)C(=O)N1CC1CN(C(=O)C2(C)CC2)C1 [compound 336, 5-(2-methyl-4-(2-methyl-2H-indazol-6-yl)phenyl)-6-((1-(1-methylcyclopropanecarbonyl)azetidin-3-yl)methyl)-4,6-diazaspiro[2.4]hept-4-en-7-one] | 103% | 50.1 nM | > 10000 nM | 20 nM | 105 nM | 7.16 | 
